The results in this text go back to patent US8535672B2, “Broad-spectrum in-vivo effective superantigen toxin antagonists based on the interaction between CD28 and the superantigen and uses thereof” (Yissum Research Development of the Hebrew University of …, priority 2003, dated 2013).

In one experiment the target is T1, PD-1 (Homo sapiens, UniProt Q15116).
T1 construct: comprise the extracellular 37-162, 19-152, 21-141, 24-167 and 20-239 amino acid, respectively, of the mature human ligands domain; purchased R&D Systems; host or cells: mouse myeloma NS0 cells
It counts as binding.

Experiment [1] relates to IL2 and IFN-γ mRNA induced by SEB in human PBMC. It counts as cell-based.

Residues, ends and D or L forms follow the SMILES beside them.

T1 sequence (Q15116 24-167): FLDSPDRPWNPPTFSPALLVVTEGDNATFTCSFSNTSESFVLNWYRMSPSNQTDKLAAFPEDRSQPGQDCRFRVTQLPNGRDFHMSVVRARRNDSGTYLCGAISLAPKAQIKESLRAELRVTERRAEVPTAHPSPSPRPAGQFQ

Take `CC(C)C[C@H](NC(=O)[C@H](CCC(=O)O)NC(=O)[C@H](CCC(N)=O)NC(=O)[C@@H](NC(=O)[C@@H](NC(=O)[C@H](C)NC(=O)[C@H](CCCCN)NC(=O)[C@H](CCCCN)NC(=O)[C@H](CCCCN)NC(=O)[C@H](CC(N)=O)NC(=O)[C@H](Cc1ccc(O)cc1)NC(=O)[C@@H](N)CS)[C@@H](C)O)C(C)C)C(=O)N[C@@H](CC(=O)O)C(=O)N[C@@H](CS)C(=O)O` [p12C] (H-CYNKKKATVQELDC-OH): the “binding of PD-1 to immobilized peptide” value on PD-1 is “failed to bind significantly”. For the same compound, the “antagonism of SEB-mediated induction of IL2 and IFN-γ mRNA” value in experiment [1] is given as “as active as p14A”.
